Reference: patent publication US20220288040A1, “USE OF PYRVINIUM FOR THE TREATMENT OF A RAS PATHWAY MUTATED ACUTE MYELOID LEUKEMIA” (INSERM (INSTITUT NATIONAL DE LA SANTÉ ET DE LA RECHERCHE …, priority 2019, published 2022)

What was measured:
NRAS^G12A-mutated AML = assay type: in vivo; details: person, trametinib 2 mg/d, hydroxycarbamide 2000 mg daily
[1] = tested on: RAS pathway activated TF-1, Ba/F3 and UT-7 cells; experiment: Trametinib dose-range cytotoxicity in RAS pathway activated cell lines; assay type: cell-based, human; murine; details: three fold-dilutions dose-range
Experimental: UptiBlue: Cells were seeded in 100 μl of culture medium for 48 hours. […] The UptiBlue viable cell-counting reagent (Interchim, Montluçon, France) was then added for 4 hours and fluorescence was measured with a Typhoon 8600 scanner (GE Healthcare BioSciences, Buc, France).

Row | SMILES | white blood cell count / leukocytosis (NRAS^G12A-mutated AML; second course) | toxicity in patient (NRAS^G12A-mutated AML) | cytotoxicity in RAS activated cells compared to isogenic control cells [1]
1 | NC(=O)NO [hydroxycarbamide] | limited efficacy | hematological toxicity | 
2 | CC(=O)Nc1cccc(-n2c(=O)n(C3CC3)c(=O)c3c(Nc4ccc(I)cc4F)n(C)c(=O)c(C)c32)c1 [trametinib] |  | neurological toxicity | marked enhancement of trametinib cytotoxicity
